The record followed here is patent publication US10370404B2, “Protoescigenin derivative, process of its preparation, use of said compound and pharmaceutical composition comprising that compound” (Warszawski Uniwersytet Medyczny, priority 2015, dated 2019).

The test system of series [1] is Human Umbilical Vein Endothelial Cells (HUVEC). The experiment in a line: HUVEC in vitro vascular permeability assay. The class given is cell-based. As to conditions: 2 μM for 24 h; rhTNF-α for the last 6 h. Here is the method:
(§1) Human Umbilical Vein Endothelial Cells (HUVEC) were cultured in the EBM-2 (Lonza) supplemented with endothelial growth supplement mix (EGM-2 SingleQuot Kit Supplements and Growth Factors, Lonza) and 2% foetal bovine serum under standard cell culture condition (37° C., 5% CO2). Cells were harvested using Accutase (PAA Laboratories). All described experiments were performed with cells of passage four from at least three donors. The cells were treated with the compound of the invention at 2 μM for 24 h with or without an additional of 6 h stimulation of recombinant human TNF-α (rhTNF-α, 10 ng/ml, R&D Systems).
The In Vitro Vascular Permeability Assay Kit (Chemicon) was used to determine HUVEC monolayer permeability. All the steps of the procedure were performed according to the manufacturer's instructions.
The In Vitro Vascular Permeability Assay Kit (Chemicon) was used to determine HUVEC monolayer permeability following 24 h treatment of the compound of the invention at 2 μM concentrations. The effect of rhTNF-α (R&D Systems), which was added to cell culture for the last 6 h of the incubation period, was also determined. The subsequent steps of the procedure were performed according to the manufacturer's instructions.

A short description of series [2]: Biochemical analysis of the serum samples. Format: in vivo, rat. As to conditions: control and experimental rats; sodium salt 10 mg/ml oral gavage, 4 weeks. On the procedure: (§2) The rats in sub-groups receiving compound of the invention were treated for 4 weeks with the compound of the invention (E-38) in form of sodium salt (10 mg/ml, 13.7 mM) administered by oral gavage.
After 4 weeks, rats were sacrificed and measurements were conducted. Non-operated rats were fed during the whole experiment. Blood samples for serum analysis were collected before the animals were sacrificed. Biochemical analysis of the blood samples was conducted using biochemical analyzer Cobas 6000 (Roche, Hitachi).
In order to verify whether the administration of the compound of the invention results in any toxic effects influence in tested rats, the inventors conducted a set of basic biochemical tests of the serum isolated from the blood samples obtained from the control and experimental rats.
The conducted blood serum test included following parameters: glucose (GLUC), creatinin (CREA), urea (UREA), total protein (TP), uric acid (UA), amylase (AMYL), albumin (ALB), cholesterol (CHOL), triglicerides (TRIG), lipase (LIP), aspartate aminotransferase (AST), alanine aminotransferase (ALT), creatine kinase (CK).

In series [3] the test system is Human Umbilical Vein Endothelial Cells (HUVEC). Briefly: HUVEC cell migration assay. The class given is cell-based. As to conditions: 2 μM; rhTNF-α 10 ng/ml. Here is the method:
as §1
The rate of cell migration was measured with the Angiogenesis System: Endothelial Cell Migration (BD Biosciences) strictly according to the manufacturer's instructions.
The rate of cell migration was measured with Angiogenesis System: Endothelial Cell Migration (BD Biosciences). Briefly, 90% confluent HUVEC were incubated with the compound of the invention at 2 μM concentration in a complete culture medium for 24 h, then starved for 4 h in a medium containing 0.1% serum. Following seeing on migration inserts ([…] in 250 μl of media containing the compound of the invention) HUVEC were stimulated with rhTNF-α (10 ng/ml, R&D Systems). […]

In series [4] the test system is male Wistar rats (un-operated control group). Briefly: Un-operated control rats: thigh circumference, muscle weight, femoral bone length. Format: in vivo, rat. As to conditions: sodium salt 10 mg/ml oral gavage, 4 weeks. Here is the method:
(§3) The below experiments were performed on male Wistar rats, at the age of 8-10 weeks, divided into two groups: the experimental group with surgically created side-to-side arterio-venous fistula between common femoral vessels (n=23) and a control group of un-operated animals (n=10). The experiment was approved by the local Bioethics Commission for experiments on animals, Warsaw 02-091, Żwirki i Wigury 61 (resolutions nr 11/2009 dated Jun. 23, 2009 and 46/12 dated Sep. 25, 2012).
Rats in the control group were also divided into two sub-groups, receiving no treatment (n=6) and receiving the compound of the invention (n=4). These animals were not subjected to any surgical procedure.
as §2
(§4) After 4 weeks, rats were sacrificed and measurements were conducted. Non-operated rats were fed during the whole experiment. Blood samples for serum analysis were collected before the animals were sacrificed. […]
(§5) After euthanasia, measurements of thigh circumference limbs of animals of the experimental and control groups were performed. […] Femoral bones were excised and their length was measured with an electronic slide clipper.
(§6) The results were expressed as arithmetic means and standard errors of the mean (SEM). […]

The test system of series [5] is male Wistar rats with surgically created side-to-side arterio-venous fistula between common femoral vessels. The experiment in a line: Rat arteriovenous fistula model of Parkes Weber syndrome: thigh circumference, muscle weight, femoral bone length. Format: in vivo. The settings on record: sodium salt 10 mg/ml oral gavage, 4 weeks. On the procedure:
as §3
Rats in experimental group were divided into two sub-groups, receiving no treatment (n=14) and receiving compound of the invention (n=9). Each animal was subjected to following surgical operations.
After induction of general anesthesia longitudinal skin incision just below inguinal ligament was performed. […] After application of micro-vascular clamps on common femoral vessels longitudinal 2 mm±0.1 mm long incision on antero-lateral side of the vein and antero-medial side of the artery were performed. Afterwards side-to-side anastomosis between common femoral vessels was performed to create arteriovenous fistula (non-absorbable monofilament suture 10/0). Subsequently micro-vascular clamps were removed and arteriovenous fistula patency was checked and haemostasis was achieved. […] The resultant vein lumen corresponded to approximately 80-90% of the initial vein lumen. Next, subcutaneous tissue and skin were sutured with absorbable suture.
The above procedure results in obtaining an animal model of Parkes Weber syndrome, described in the European patent application EP14001527. Hereinafter, these limbs are referred to as AVF limbs.
The operation of the right hind limb (control limb) included skin incision, common femoral vessels dissection, and subcutaneous and skin suture (absorbable suture). Hereinafter, these limbs are referred to as sham-operated limbs.
Animals were fed for 1 week, than surgical procedures were conducted. After the operation, animals were fed and treated with the compound of the invention.
as §2, §4, §5, §6

[6] abbreviates: left hind (AVF) limbs vs experimental group with no treatment.

`CC1(C)C[C@H]2C3=CCC4[C@@]5(C)CC[C@H](O)[C@](C)(CO)C5CC[C@@]4(C)[C@]3(C)C[C@@H](O)[C@@]2(COCc2cn(-c3ccc(C(=O)O)cc3)nn2)[C@@H](O)[C@@H]1O` (some centres unmarked) [compound of the invention]: in series [1], the “TNF-α-induced endothelial cells permeability” value is “significantly decreased”. In addition, in series [2], the “influence on blood serum parameters (GLUC, CREA, UREA, TP, UA, AMYL, ALB, CHOL, TRIG, LIP, AST, ALT, CK)” value is on record as “no significant influence”. For the same compound, the TNF-α-induced cell migration entry in series [3] was “reduced”. Also, in series [4], the “influence on measured parameters (thigh circumference, EDL and SOL muscle weight, femoral bone length)” value is recorded as “insignificant influence”. Moreover, in series [5] (AVF rats), the “effect on measured parameters (thigh circumference, EDL and SOL muscle weight, femoral bone length)” value was “reduction of the measured parameters to a very significant extent”. In series [5] (setting [6]), the “reduction of EDL muscle weight” value was “approx. 59.2%”, the “reduction of SOL muscle weight” value is “approx. 63.6%” and the “reduction of thigh circumference” value was “approx. 12.5%”.
